Experimental data: the NIST ThermoML archive (doi:10.1016/j.fluid.2012.01.029)
± gives the expanded uncertainty stated by the source.

Details: 293.15 K; 101.33 kPa; Liquid; Vibrating tube method

SMILES	mass density
NCCO [2-aminoethan-1-ol]	1017.9 ± 0.3 kg/m3
CN(CCO)CCO [N-methyldiethanolamine]	1037.7 ± 0.3 kg/m3
